In publication PMC8445441, “Elucidating the mechanism by which synthetic helper peptides sensitize Pseudomonas aeruginosa to multiple antibiotics” (PLoS Pathogens, 2021):
Entries after “also recorded” stand apart in the source; their conditions may differ. Positions of bridges follow the written chain, without caps; N, C: chain ends. Non-standard residues stand in square brackets, D forms with d. Residues, ends and D or L forms follow the SMILES beside them. *: point of attachment. X1 = CC[C@H](C)CCCCC(=O)*; Dab = NCC[C@H](N)C(=O)O

Assays:
[1] = tested on: P. aeruginosa AUMC-Pa-3; test: microbe, parasite or virus in culture; details: strain AUMC-Pa-3
Outline: (§1)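 MICs were determined by CLSI broth microdilution in MHB, in triplicate: two-fold drug dilutions were mixed 1:1 with bacterial suspension of ~1 × 10^6 CFU/mL and incubated 18 h at 37 °C. The MIC was the lowest concentration with no visible growth.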

[2] = tested on: P. aeruginosa AUMC-Pa-4; test: microbe, parasite or virus in culture; details: strain AUMC-Pa-4
Outline: as §1

[3] = tested on: P. aeruginosa AUMC-Pa-5; test: microbe, parasite or virus in culture; details: strain AUMC-Pa-5
Outline: as §1

[4] = tested on: P. aeruginosa AUMC-Pa-6; test: microbe, parasite or virus in culture; details: strain AUMC-Pa-6
Outline: as §1

[5] = tested on: P. aeruginosa PAO1; test: microbe, parasite or virus in culture; details: for MICac: the MIC for the antibiotic in the combination: S3 Table, PAO1
Outline: as §1

[6] = tested on: P. aeruginosa ATCC27853; test: microbe, parasite or virus in culture; set-up: MICa: MIC of the antibiotic / MICac: MIC of the antibiotic in the combination: unit not given beside the values; details: strain ATCC27853
Outline: as §1

[7] = tested on: P. aeruginosa NR-31040; test: microbe, parasite or virus in culture; set-up: MICa: MIC of the antibiotic / MICac: MIC of the antibiotic in the combination: unit not given beside the values; details: strain NR-31040
Outline: as §1

[8] = tested on: P. aeruginosa NR-31041; test: microbe, parasite or virus in culture; set-up: MICa: MIC of the antibiotic / MICac: MIC of the antibiotic in the combination: unit not given beside the values; details: strain NR-31041
Outline: as §1

[9] = tested on: P. aeruginosa PA14; test: microbe, parasite or virus in culture; set-up: MICa: MIC of the antibiotic / MICac: MIC of the antibiotic in the combination: unit not given beside the values; details: strain PA14
Outline: as §1

[10] = tested on: P. aeruginosa PAK; test: microbe, parasite or virus in culture; set-up: MICa: MIC of the antibiotic / MICac: MIC of the antibiotic in the combination: unit not given beside the values; details: strain PAK
Outline: as §1

[11] = tested on: P. aeruginosa HM-214; set-up: MICa: MIC of the antibiotic / MICac: MIC of the antibiotic in the combination: unit not given beside the values; details: strain HM-214
Outline: as §1

[12] = tested on: P. aeruginosa AUMC-Pa-1; details: strain AUMC-Pa-1
Outline: as §1

[13] = tested on: P. aeruginosa AUMC-Pa-2; details: strain AUMC-Pa-2
Outline: as §1

[14] = tested on: clinical P. aeruginosa isolates; test: microbe, parasite or virus in culture; details: antibiotic alone
Outline: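 Broth microdilution per CLSI in MHB, two-fold drug dilutions mixed with an equal volume of bacteria at about 1 × 10^6 CFU/mL. After 18 h at 37 °C, MIC taken as the lowest concentration with no visible growth; run in triplicate.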

[15] = mice
Text: Since D-11 contains five positively charged amino acids, it is easier to bind to bacterial negatively charged membrane components.
However, we still carried out high-dose toxicity tests in mice according to the recommendations.

[16] = tested on: HEK-293 cells; details: high concentration of D-11; cited from earlier work
Text: Interes ... || Response: This comment is valuable. […] We believe that it is a safe drug candidate.

[17] = cited from earlier work
[18] = antibiotic + D-11 (MICb/MICbc 128/4)
[19] = antibiotic alone, unit not given
[20] = with D-11 at MICbc 4, unit not given
[21] = antibiotic + D-11 (MICb/MICbc 64/4)

SMILES: CC[C@H](C)CCCCC(=O)N[C@@H](CCN)C(=O)N[C@H](C(=O)N[C@@H](CCN)C(=O)N[C@H]1CCNC(=O)[C@H]([C@@H](C)O)NC(=O)[C@H](CCN)NC(=O)[C@H](CCN)NC(=O)[C@H](CC(C)C)NC(=O)[C@@H](CC(C)C)NC(=O)[C@H](CCN)NC1=O)[C@@H](C)O [Colistin] (X1-[Dab]T[Dab][Dab][Dab][dL]L[Dab][Dab]T; lactam 4-C (inferred); N-terminus assumed)
- FICI [1, 18]: 0.039
- MICa: MIC of the antibiotic [1, 19]: 0.25
- MICac: MIC of the antibiotic in the combination [1, 20]: 0.002
- FICI [2, 18]: 0.531
- MICa: MIC of the antibiotic [2, 19]: 8
- MICac: MIC of the antibiotic in the combination [2, 20]: 4
- FICI [3, 21]: 1.063
- MICa: MIC of the antibiotic [3, 19]: 4/4
- MICac: MIC of the antibiotic in the combination [3, 20]: 4/4
- FICI [4, 21]: 0.563
- MICa: MIC of the antibiotic [4, 19]: 4
- MICac: MIC of the antibiotic in the combination [4, 20]: 2
- MICa: the MIC of antibiotics ([5]; PAO1, 18 h): 0.25 µM
- MICac: the MIC for the antibiotic in the combination ([5]; with 2 μM D-11): 0.004 µM
- MICac: the MIC for the antibiotic in the combination ([5]; with 4 μM D-11): 0.001 µM
- FICI ([6]; antibiotic + D-11 (MICb/MICbc 32/4)): 0.375
- MICa: MIC of the antibiotic [6, 19]: 0.25
- MICac: MIC of the antibiotic in the combination [6, 20]: 0.063
- FICI [7, 18]: 0.281
- MICa: MIC of the antibiotic [7, 19]: 1
- MICac: MIC of the antibiotic in the combination [7, 20]: 0.25
- FICI [8, 21]: 0.127
- MICa: MIC of the antibiotic [8, 19]: 0.125
- MICac: MIC of the antibiotic in the combination [8, 20]: 0.008
- FICI [9, 18]: 0.094
- MICa: MIC of the antibiotic [9, 19]: 0.25
- MICac: MIC of the antibiotic in the combination [9, 20]: 0.016
- FICI [10, 21]: 0.079
- MICa: MIC of the antibiotic [10, 19]: 0.25
- MICac: MIC of the antibiotic in the combination [10, 20]: 0.008
- FICI [11, 18]: 0.063
- MICa: MIC of the antibiotic [11, 19]: 1
- MICac: MIC of the antibiotic in the combination [11, 20]: 0.031
- FICI [12, 18]: 0.281
- MICa: MIC of the antibiotic [12, 19]: 0.5
- MICac: MIC of the antibiotic in the combination [12, 20]: 0.125
- FICI [13, 21]: 1.063
- MICa: MIC of the antibiotic [13, 19]: 0.5/0.5
- MICac: MIC of the antibiotic in the combination [13, 20]: 0.5/0.5
- Antibiotic sensibility (MIC) of clinical P. aeruginosa isolate AUMC-Pa-1 ([14]; strain AUMC-Pa-1): 0.5 µM
- Antibiotic sensibility (MIC) of clinical P. aeruginosa isolate AUMC-Pa-2 ([14]; strain AUMC-Pa-2): 0.5 µM
- Antibiotic sensibility (MIC) of clinical P. aeruginosa isolate AUMC-Pa-3 ([14]; strain AUMC-Pa-3): 0.25 µM
- Antibiotic sensibility (MIC) of clinical P. aeruginosa isolate AUMC-Pa-4 ([14]; strain AUMC-Pa-4): 8 µM
- Antibiotic sensibility (MIC) of clinical P. aeruginosa isolate AUMC-Pa-5 ([14]; strain AUMC-Pa-5): 4 µM
- Antibiotic sensibility (MIC) of clinical P. aeruginosa isolate AUMC-Pa-6 ([14]; strain AUMC-Pa-6): 4 µM
- Antibiotic sensibility (MIC) of clinical P. aeruginosa isolate HM-214 ([14]; strain HM-214): 1 µM
- Antibiotic sensibility (MIC) of clinical P. aeruginosa isolate NR-31040 ([14]; strain NR-31040): 1 µM
- Antibiotic sensibility (MIC) of clinical P. aeruginosa isolate NR-31041 ([14]; strain NR-31041): 0.125 µM

SMILES: CC[C@@H](C)[C@@H](NC(=O)[C@H](N)CCCNC(=N)N)C(=O)N[C@@H](C(=O)N[C@H](CCC(N)=O)C(=O)N[C@H](CCCNC(=N)N)C(=O)N[C@@H](C(=O)N[C@H](CCCCN)C(=O)N[C@H](CCCCN)C(=O)N[C@H](Cc1c[nH]c2ccccc12)C(=O)N[C@H](CC(C)C)C(=O)N[C@H](CCCNC(=N)N)C(N)=O)[C@H](C)CC)C(C)C [Peptide D-11] (H-[dR][dI][dV][dQ][dR][dI][dK][dK][dW][dL][dR]-NH2)
- MIC of the peptide ([5]; PAO1, 18 h): 32 µM
- MICb: the MIC of D-11 ([5]; PAO1, 18 h): 32 µM
- MICb: the MIC of the peptide ([5]; PAO1, 18 h): 32 µM
- side effects in vivo (in words) ([15]; 10 mg/kg D-11): no obvious side effects were observed
- irritation after subcutaneous injection (in words) ([15]; subcutaneous 20 mg/kg D-11): slightly irritating
- toxicity to HEK-293 cells (in words) [16]: not toxic to HEK-293 cells; also recorded: no toxicity to HEK-293 cells
- stability in plasma (in words) [17]: stable in plasma
